Where “and” joins values, the source holds several entries; their conditions need not be identical. Equal values may be shown once. Inconclusive results and toxic doses are left out.
Tested on: P388 leukemia ip, CD2F1 mice, survival T/C
Assay: NCI In Vivo Anticancer Drug Screen. Data for tumor model P388 Leukemia (intraperitoneal) in CD2F1 (CDF1) mice
Settings: endpoint: median survival time, higher = longer survival
Method: The antitumor activity of compounds was measured in mice bearing transplantable tumors. Survival or tumor size were measured and the results are expressed as the measurement made in the treated group (T) divided by the measurement made in the vehicle treated control group (C). The tumor model used in this assay is P388 Leukemia (intraperitoneal) in CD2F1 (CDF1) mice

[1] = dose: 6.25 mg/kg/injection, schedule: Q01DX009 (ip), vehicle: saline with Tween-80
[2] = dose: 12.5 mg/kg/injection, schedule: Q01DX009 (ip), vehicle: saline with Tween-80
[3] = dose: 25.0 mg/kg/injection, schedule: Q01DX009 (ip), vehicle: saline with Tween-80
[4] = dose: 50.0 mg/kg/injection, schedule: Q01DX009 (ip), vehicle: saline with Tween-80
[5] = dose: 50.0 mg/kg/injection, schedule: Q01DX005 (ip), vehicle: saline with Tween-80
[6] = dose: 100.0 mg/kg/injection, schedule: Q01DX005 (ip), vehicle: saline with Tween-80
[7] = dose: 200.0 mg/kg/injection, schedule: Q01DX005 (ip), vehicle: saline with Tween-80
[8] = dose: 50.0 mg/kg/injection, schedule: Q01DX005 (ip), vehicle: Klucel (hydroxypropylcellulose) (HPC)
[9] = dose: 100.0 mg/kg/injection, schedule: Q01DX005 (ip), vehicle: Klucel (hydroxypropylcellulose) (HPC)
[10] = dose: 200.0 mg/kg/injection, schedule: Q01DX005 (ip), vehicle: Klucel (hydroxypropylcellulose) (HPC)
[11] = dose: 60.0 mg/kg/injection, schedule: Q01DX005 (ip), vehicle: saline with Tween-80
[12] = dose: 120.0 mg/kg/injection, schedule: Q01DX005 (ip), vehicle: saline with Tween-80
[13] = dose: 240.0 mg/kg/injection, schedule: Q01DX005 (ip), vehicle: saline with Tween-80

Compound: CC1CC(C)(C)C2=NCCN21 (stereo not given)
- T/C (dose: 6.25 mg/kg/injection, schedule: Q01DX009 (ip), vehicle: water): 105 % of control
- T/C (dose: 12.5 mg/kg/injection, schedule: Q01DX009 (ip), vehicle: water): 100 % of control
- T/C (dose: 15.0 mg/kg/injection, schedule: Q01DX005 (ip), vehicle: saline): 106 % of control
- T/C (dose: 25.0 mg/kg/injection, schedule: Q01DX009 (ip), vehicle: water): 107 % of control
- T/C (dose: 30.0 mg/kg/injection, schedule: Q01DX005 (ip), vehicle: saline): 106 % of control
- T/C (dose: 50.0 mg/kg/injection, schedule: Q01DX009 (ip), vehicle: water): 107 % of control
- T/C (dose: 60.0 mg/kg/injection, schedule: Q01DX005 (ip), vehicle: saline): 99 % of control and 100 % of control

Compound: [O-][N+](=C1c2ccccc2-c2ccccc21)c1ccccc1
- T/C (dose: 50.0 mg/kg/injection, schedule: Q04DX003 (ip), vehicle: saline): 109 % of control
- T/C (dose: 100.0 mg/kg/injection, schedule: Q04DX003 (ip), vehicle: saline): 118 % of control
- T/C (dose: 200.0 mg/kg/injection, schedule: Q04DX003 (ip), vehicle: saline): 95 % of control

Compound: CN1C(=O)Cc2ccccc2C1=O
- T/C (dose: 12.5 mg/kg/injection, schedule: Q01DX009 (ip), vehicle: saline): 103 % of control
- T/C (dose: 25.0 mg/kg/injection, schedule: Q01DX009 (ip), vehicle: saline): 101 % of control
- T/C (dose: 50.0 mg/kg/injection, schedule: Q01DX009 (ip), vehicle: saline): 119 % of control
- T/C (dose: 100.0 mg/kg/injection, schedule: Q01DX009 (ip), vehicle: saline): 103 % of control

Compound: CSC(=S)N/N=C/c1ccccc1O
- T/C [1]: 90 % of control
- T/C [2]: 90 % of control
- T/C [3]: 95 % of control

Compound: CC1(C)CC(OP(=[Se])(OC2CC(C)(C)N(O)C(C)(C)C2)N2CC2)CC(C)(C)N1O
- T/C (dose: 12.5 mg/kg/injection, schedule: Q01DX001 (ip), vehicle: Klucel (hydroxypropylcellulose) (HPC)): 102 % of control
- T/C (dose: 25.0 mg/kg/injection, schedule: Q01DX001 (ip), vehicle: Klucel (hydroxypropylcellulose) (HPC)): 105 % of control
- T/C (dose: 50.0 mg/kg/injection, schedule: Q01DX001 (ip), vehicle: Klucel (hydroxypropylcellulose) (HPC)): 106 % of control

Compound: CN(C)S(=O)(=O)N1CCOCC1
- T/C (dose: 50.0 mg/kg/injection, schedule: Q04DX003 (ip), vehicle: Klucel (hydroxypropylcellulose) (HPC)): 95 % of control
- T/C (dose: 100.0 mg/kg/injection, schedule: Q04DX003 (ip), vehicle: Klucel (hydroxypropylcellulose) (HPC)): 101 % of control
- T/C (dose: 200.0 mg/kg/injection, schedule: Q04DX003 (ip), vehicle: Klucel (hydroxypropylcellulose) (HPC)): 93 % of control
- T/C (dose: 400.0 mg/kg/injection, schedule: Q04DX003 (ip), vehicle: Klucel (hydroxypropylcellulose) (HPC)): 110 % of control

Compound: Cc1cccc(Nc2c(C(=O)O)cnc3cc4c(cc23)OCO4)c1
- T/C (dose: 60.0 mg/kg/injection, schedule: Q01DX005 (ip), vehicle: Klucel (hydroxypropylcellulose) (HPC)): 94 % of control
- T/C (dose: 120.0 mg/kg/injection, schedule: Q01DX005 (ip), vehicle: Klucel (hydroxypropylcellulose) (HPC)): 94 % of control

Compound: CC(=O)N1C(=O)C2C3C=CC(C3)C2C(=O)N1C(C)=O (stereo not given)
- T/C [1]: 96 % of control
- T/C [2]: 97 % of control
- T/C [3]: 102 % of control
- T/C [4]: 106 % of control and 86 % of control

Compound: CC(=O)OC(CC=C(C)C)C1=CC(=O)c2c(O)ccc(O)c2C1=O (stereo not given)
- T/C (dose: 6.25 mg/kg/injection, schedule: Q01DX005 (ip), vehicle: saline with Tween-80): 109 % of control
- T/C (dose: 12.5 mg/kg/injection, schedule: Q01DX005 (ip), vehicle: saline with Tween-80): 109 % of control

Compound: CCOc1ccccc1N=Nc1c(-c2ccccc2)nn(C(=S)S)c1-c1ccccc1
- T/C [5]: 107 % of control
- T/C [6]: 109 % of control
- T/C [7]: 110 % of control

Compound: OCC(O)CNc1ncnc2cc(Cl)ccc12 (stereo not given)
- T/C (dose: 25.0 mg/kg/injection, schedule: Q01DX005 (ip), vehicle: Klucel (hydroxypropylcellulose) (HPC)): 100 % of control
- T/C [8]: 96 % of control
- T/C [9]: 102 % of control
- T/C [10]: 105 % of control

Compound: c1ccc2c(c1)[nH]c1cc3c(cc12)CCCCC3
- T/C [11]: 107 % of control
- T/C [12]: 91 % of control
- T/C [13]: 97 % of control

Compound: COC(=O)n1c(=O)ccc(=O)n1C(=O)OC
- T/C (dose: 50.0 mg/kg/injection, schedule: Q01DX001 (ip), vehicle: saline): 100 % of control and 103 % of control
- T/C (dose: 100.0 mg/kg/injection, schedule: Q01DX001 (ip), vehicle: saline): 98 % of control and 100 % of control and 106 % of control
- T/C (dose: 200.0 mg/kg/injection, schedule: Q01DX001 (ip), vehicle: saline): 100 % of control and 106 % of control and 115 % of control
- T/C (dose: 400.0 mg/kg/injection, schedule: Q01DX001 (ip), vehicle: saline): 100 % of control and 112 % of control and 122 % of control

Compound: CN(CCNCC1CCCN1C)Cc1cccc(Cl)c1 (stereo not given)
- T/C (dose: 50.0 mg/kg/injection, schedule: Q01DX005 (ip), vehicle: saline): 108 % of control
- T/C (dose: 100.0 mg/kg/injection, schedule: Q01DX005 (ip), vehicle: saline): 101 % of control
- T/C (dose: 200.0 mg/kg/injection, schedule: Q01DX005 (ip), vehicle: saline): 106 % of control

Compound: Clc1nc2ccccc2nc1CI
- T/C (dose: 2.66 mg/kg/injection, schedule: Q01DX009 (ip), vehicle: other): 119 % of control
- T/C (dose: 4.0 mg/kg/injection, schedule: Q01DX009 (ip), vehicle: other): 119 % of control
- T/C (dose: 6.0 mg/kg/injection, schedule: Q01DX009 (ip), vehicle: other): 119 % of control
- T/C (dose: 9.0 mg/kg/injection, schedule: Q01DX009 (ip), vehicle: other): 114 % of control

Compound: c1ccc(C2Oc3ccccc3-c3nc4ccccc4cc32)cc1 (stereo not given)
- T/C [5]: 106 % of control
- T/C [6]: 111 % of control
- T/C [7]: 100 % of control

Compound: CC12c3ccccc3C(C)(c3ccccc31)C(C(=O)O)C2Br (stereo not given)
- T/C [8]: 100 % of control
- T/C [9]: 103 % of control
- T/C [10]: 95 % of control

Compound: O=[N+]([O-])c1ccc(CSSCc2ccc([N+](=O)[O-])cc2)cc1
- T/C [8]: 98 % of control
- T/C [9]: 100 % of control
- T/C [10]: 105 % of control

Compound: CNc1nc2c(N)ncnc2n1C1CC(O)C(CO)O1 (stereo not given)
- T/C [8]: 101 % of control
- T/C [9]: 96 % of control
- T/C [10]: 104 % of control

Compound: NC(=S)N/N=C/c1ccc2c(c1)OCO2
- T/C [4]: 100 % of control
- T/C (dose: 100.0 mg/kg/injection, schedule: Q01DX009 (ip), vehicle: saline with Tween-80): 100 % of control

Compound: COC(=O)CCC1=CC(=O)C(OC)=CC1=O
- T/C [1]: 110 % of control
- T/C [2]: 97 % of control
- T/C [3]: 99 % of control

Compound: CC1(C)CC(O)(Cc2ccccc2)C(=O)c2ccccc21 (stereo not given)
- T/C (dose: 25.0 mg/kg/injection, schedule: Q01DX009 (ip), vehicle: Klucel (hydroxypropylcellulose) (HPC)): 96 % of control
- T/C (dose: 50.0 mg/kg/injection, schedule: Q01DX009 (ip), vehicle: Klucel (hydroxypropylcellulose) (HPC)): 95 % of control
- T/C (dose: 100.0 mg/kg/injection, schedule: Q01DX009 (ip), vehicle: Klucel (hydroxypropylcellulose) (HPC)): 98 % of control
- T/C (dose: 200.0 mg/kg/injection, schedule: Q01DX009 (ip), vehicle: Klucel (hydroxypropylcellulose) (HPC)): 98 % of control
- T/C (dose: 400.0 mg/kg/injection, schedule: Q01DX009 (ip), vehicle: Klucel (hydroxypropylcellulose) (HPC)): 86 % of control

Compound: CCOC(=O)CCSC(=O)NCCCCCCNC(=O)SCCC(=O)OCC
- T/C [8]: 98 % of control
- T/C [9]: 96 % of control
- T/C [10]: 102 % of control

Compound: CC(=O)c1cc(-c2ccc3ccccc3c2)nc2ccccc12
- T/C [5]: 96 % of control
- T/C [6]: 94 % of control
- T/C [7]: 100 % of control

Compound: On1cc/c(=N\N=C\c2ccc(N(CCCl)CCCl)cc2)c2ccccc21
- T/C (dose: 100.0 mg/kg/injection, schedule: Q04DX003 (ip), vehicle: saline + Tween-80 + alcohol): 99 % of control
- T/C (dose: 200.0 mg/kg/injection, schedule: Q04DX003 (ip), vehicle: saline + Tween-80 + alcohol): 106 % of control
- T/C (dose: 400.0 mg/kg/injection, schedule: Q04DX003 (ip), vehicle: saline + Tween-80 + alcohol): 102 % of control

Compound: COc1cc(C2c3cc4c(cc3OC(C)(OC)C2C(C)=O)OCO4)cc(OC)c1O (stereo not given)
- T/C [11]: 91 % of control
- T/C [12]: 95 % of control
- T/C [13]: 97 % of control

Compound: Fc1cccc(C(Nc2nncs2)Nc2nncs2)c1
- T/C [8]: 108 % of control and 97 % of control
- T/C [9]: 112 % of control and 114 % of control
- T/C (dose: 400.0 mg/kg/injection, schedule: Q01DX005 (ip), vehicle: Klucel (hydroxypropylcellulose) (HPC)): 159 % of control

Source: PubChem BioAssay AID330 (DTP/NCI, 2004)
